From US7476673B2, “Disubstituted chalcone oximes as selective agonists of RARγ retinoid receptors” (Allergan, Inc., priority 2003, dated 2009)

Test system: RARγ
Assay: chimeric receptor transactivation assay, RARγ
Type: cell-based
Conditions: judged from Table 1 data, versus RARα and RARβ
Procedure: The compounds of the invention were tested in certain assays for activity as agonists of RAR and RXR retinoid receptors. Specifically, one such assay is a chimeric receptor transactivation assay which tests for agonist-like activity in the RARα, RARβ and RARγ receptor subtypes, and which is based on work published by Feigner P. L. and Holm M. (1989) Focus, 112 is described in detail in U.S. Pat. No. 5,455,265. The specification of U.S. Pat. No. 5,455,265 is hereby expressly incorporated by reference.
A holoreceptor transactivation assay and a ligand binding assay which measure the antagonist/agonist like activity of the compounds of the invention, or their ability to bind to the several retinoid receptor subtypes, respectively, are described in published PCT Application No. WO WO93/11755 (particularly on pages 30-33 and 37-41) published on Jun. 24, 1993, the specification of which is also incorporated herein by reference. A detailed experimental procedure for holoreceptor transactivations has been described by Heyman et al. Cell 68, 397-406, (1992); Allegretto et al. J. Biol. Chem. 268, 26625-26633, and Mangelsdorf et al. The Retinoids: Biology, Chemistry and Medicine, pp 319-349, Raven Press Ltd., New York, which are expressly incorporated herein by reference. The results obtained in this assay are expressed in EC50 numbers, as they are also in the chimeric receptor transactivation assay. The results of the ligand binding assay are expressed in Ki numbers. (See Cheng et al. Biochemical Pharmacology Vol. 22 pp 3099-3108, expressly incorporated herein by reference.)
Efficacy in a transactivation assay is expressed as a percentage of the maximum potency attained by the compound compared to a standard which, in this case, is the compound 4-[(1E)-2-(5,6,7,8-tetrahydro-5,5,8,8-tetramethyl-2-naphthalenyl)-1-propenyl]-benzoic acid. (TTNPB) This standard compound is described in PCT Publication WO 2002077169 A2.
Table 1 discloses the activity of certain exemplary compounds of the invention in the above-described chimeric RAR receptor transactivation and binding assays.

SMILES	selectivity to the RARγ receptors
COc1cc2c(cc1C(/C=C/c1ccc(C(=O)O)cc1)=NO)C(C)(C)CCC2(C)C [Compound 13a, E-4-[3-Hydroxyimino-3-(3-methoxy-5,5,8,8-tetramethyl-5,6,7,8-tetrahydro-naphthalen-2-yl)-propenyl]-benzoic acid]	less selective
COc1cc2c(cc1C(/C=C\c1ccc(C(=O)O)cc1)=NO)C(C)(C)CCC2(C)C [Compound 13b, Z-4-[3-hydroxyimino-3-(3-methoxy-5,5,8,8-tetramethyl-5,6,7,8-tetrahydro-naphthalen-2-yl)-propenyl]-benzoic acid]	less selective
Cc1cc2c(cc1C(/C=C\c1ccc(C(=O)O)cc1)=NO)C(C)(C)CCC2(C)C [Compound 9b, Z4-[3-hydroxyimino-3-(3,5,5,8,8-pentamethyl-5,6,7,8-tetrahydro-naphthalen-2-yl)-propenyl]-benzoic acid]	less selective
Cc1cc2c(cc1C(/C=C/c1ccc(C(=O)O)cc1)=NO)C(C)(C)CCC2(C)C [Compound 9a, E-4-[3-Hydroxyimino-3-(3,5,5,8,8-pentamethyl-5.6,7,8-tetrahydro-naphthalen-2-yl)-propenyl]-benzoic acid]	less selective
